Experimental data taken from patent US20240316060A1, “LASER AND BCL-2 INHIBITORS COMBINATION TO TREAT SOLID TUMORS” (Board of Regents, The University of Texas System, priority 2023, published 2024).

The molecules below were run on 3D spheroids (assay: Annexin-V assay in 3D spheroids (flow-cytometry)). Conditions: without laser.
Assay type: cell-based
From the text: Annexin-V Assay in 3D Spheroids
Table 2 represents the flow-cytometry of solid tumors treated with various modalities including positive controls (DMSO and H2O2) compared with boron nitride/navitoclax formulations with and without laser excitation.

SMILES | Early apoptosis | Late apoptosis | Live
C[S+](C)[O-] [DMSO] | 9.51% | 5.23% | 85%
CC1(C)CCC(c2ccc(Cl)cc2)=C(CN2CCN(c3ccc(C(=O)NS(=O)(=O)c4ccc(N[C@H](CCN5CCOCC5)CSc5ccccc5)c(S(=O)(=O)C(F)(F)F)c4)cc3)CC2)C1 [Free NAVI, Navitoclax] | 32.04% | 9.64% | 58%
OO [H2O2] | 58.37% | 40.12% | 1%
